Among the data in patent publication EP3952873B1 (priority 2019, dated 2020) are Ki and Kp values, retold here.

pKi: −log10 of the molar value.

Series [1] deals with T1, GHB high-affinity binding site/CaMK2a (Rattus norvegicus, UniProt P11275).
T1 construct: rat (Sprague-Dawley) cortical synaptic membranes (P2 synaptosomes) were prepared; from tissue; host or cells: rat (Sprague-Dawley) cortical synaptic membranes (P2 synaptosomes)
Nature of the series: Rat brain membrane [3H]NCS-382 binding assay. The conditions noted are these: 16 nM [3H]NCS-382, rat cortical synaptic membranes, pH 6.0, 0-4 °C. The method, then: According to previously published protocols, rat (Sprague-Dawley) cortical synaptic membranes (P2 synaptosomes) were prepared and stored at -20 °C until the day of assay (Wellendorph et al., 2005). Membranes were then washed three times with binding buffer (50 mM potassium phosphate buffer pH 6.0). The binding protocol was performed in 96-well microplates. In brief, compounds were incubated with 16 nM [^3H]NCS-382 radioligand and membranes for 60 min at 0-4 °C, filtered through GF/C filter plates (PerkinElmer) using a 96-well harvester (Packard), rapidly washed three times with ice-cold binding buffer, and filter plates dried. CPM values were determined using liquid scintillation counting in a TopCount NXT Microplate Scintillation & Luminescence Counter (PerkinElmer). Curves were generated using non-linear regression (GraphPad Prism 7, GraphPad Prism Software, San Diego, CA, USA).
JON-11, related analogues, and pro-JON-11(10) were tested in the [^3H]NCS-382 binding assay (Wellendorph et al., 2005).

A short description of another series: in vivo. Also on record: species or system mice. The conditions noted are these: male, C57BL/6JRj, mouse, ip, 10 mg/kg. The method, then:
To evaluate the ability of pro-JON-11 (10) and JON-11 to penetrate the blood-brain barrier, a brain-to-plasma distribution ratio (B/P ratio) was obtained. All subjects were male C57BL/6JRj mice (24-26 g, Janvier Labs, France) housed in groups of three-four with ad libitum access to food and water. The mice were maintained under diurnal conditions (12-h light/dark cycle with lights on at 7 AM) in a temperature (22±1 °C) and humidity-controlled room (50±10%). Ethical permission for the procedures used in this in vivo study was granted by the Danish Animal Experiments Inspectorate.
Compounds were dissolved in PEG-400 (Sigma) at 20% of the final required volume. The final volume was then made up by 10% (w/v) hydroxypropyl-beta-cyclodextrin (Sigma Aldrich) in sterile saline. The solution was sonicated for 5 min. The JON-11 solution was pH-adjusted to 7.4 with 0.2% 2M NaOH.
Both compounds were injected i.p. at a dose of 10 mg/kg (n=3 for each compound). […] After 30 min, the animals were sacrificed by decapitation, trunk blood was collected in EDTA-coated tubes and the brain was gently removed. Blood and tissues were temporarily stored on ice until plasma and brain homogenate preparation. Blood plasma was separated from cells by centrifugation for 10 min at 1,500 x g at 4 °C and plasma harvested. […]
Plasma and brain exposure of JON-11 and pro-JON-11 were evaluated in male mice. […]

T1 sequence (P11275 whole entry): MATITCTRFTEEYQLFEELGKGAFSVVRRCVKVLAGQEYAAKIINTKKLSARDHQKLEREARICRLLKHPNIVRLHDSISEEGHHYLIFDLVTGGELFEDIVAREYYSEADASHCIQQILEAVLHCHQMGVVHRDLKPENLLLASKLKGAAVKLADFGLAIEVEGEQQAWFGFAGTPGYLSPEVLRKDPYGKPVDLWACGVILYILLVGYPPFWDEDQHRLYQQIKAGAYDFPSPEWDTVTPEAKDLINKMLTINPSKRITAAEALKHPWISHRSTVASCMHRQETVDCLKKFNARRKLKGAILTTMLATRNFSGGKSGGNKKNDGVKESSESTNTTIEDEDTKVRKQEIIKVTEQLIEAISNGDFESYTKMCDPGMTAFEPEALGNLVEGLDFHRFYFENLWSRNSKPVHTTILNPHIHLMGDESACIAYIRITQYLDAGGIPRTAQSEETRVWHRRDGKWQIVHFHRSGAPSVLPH

What is called pKi is −log10 of the Ki, conventionally taken in molar units. The low end stands for a high Ki, the high end for a low Ki. In turn, `O=C(O)Cc1cn2nc(-c3ccc(Cl)cc3)ccc2n1` [JON-11, 2-(6-(4-Chlorophenyl)imidazo[1,2-b]pyridazin-2-yl)acetic acid] showed a pKi in series [1] of 6.66. In addition, in “in vivo”, the Kp at 30 min was 0.05.
